Laboratory results as given in PMC10641818, “Development of First-in-Class Dual Sirt2/HDAC6 Inhibitors as Molecular Tools for Dual Inhibition of Tubulin Deacetylation” (Journal of Medicinal Chemistry, 2023).

What was measured:
Type in all cases: biochemical
Sirt2 (demyristoylation) = target: T1, Sirt2 (demyristoylation) (Homo sapiens, UniProt Q8IXJ6); experiment: Discontinuous Sirt2 demyristoylation assay (ZMML substrate)
T1 construct: the respective sirtuin (Sirt1_134–747, Sirt2_56–356, or Sirt3_118–395) was mixed with; made in house; host or cells: Escherichia coli BL21 Star (DE3)
T1 sequence (Q8IXJ6 56-356): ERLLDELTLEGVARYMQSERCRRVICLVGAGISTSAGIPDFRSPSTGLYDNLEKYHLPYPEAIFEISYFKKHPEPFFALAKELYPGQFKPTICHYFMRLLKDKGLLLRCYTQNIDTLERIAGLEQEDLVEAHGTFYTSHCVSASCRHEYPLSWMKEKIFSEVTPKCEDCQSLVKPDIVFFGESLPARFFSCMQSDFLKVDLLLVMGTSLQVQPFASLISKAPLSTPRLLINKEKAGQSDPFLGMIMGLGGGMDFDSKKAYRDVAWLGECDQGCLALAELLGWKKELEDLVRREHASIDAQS

HDAC6 = target: T2, HDAC6 (Homo sapiens, UniProt Q9UBN7); experiment: HDAC6 in vitro deacetylation assay (ZMAL); parameters: purchased BPS Bioscience 50006; details: deacetylation, mean ± SD
T2 sequence (Q9UBN7 1-1215): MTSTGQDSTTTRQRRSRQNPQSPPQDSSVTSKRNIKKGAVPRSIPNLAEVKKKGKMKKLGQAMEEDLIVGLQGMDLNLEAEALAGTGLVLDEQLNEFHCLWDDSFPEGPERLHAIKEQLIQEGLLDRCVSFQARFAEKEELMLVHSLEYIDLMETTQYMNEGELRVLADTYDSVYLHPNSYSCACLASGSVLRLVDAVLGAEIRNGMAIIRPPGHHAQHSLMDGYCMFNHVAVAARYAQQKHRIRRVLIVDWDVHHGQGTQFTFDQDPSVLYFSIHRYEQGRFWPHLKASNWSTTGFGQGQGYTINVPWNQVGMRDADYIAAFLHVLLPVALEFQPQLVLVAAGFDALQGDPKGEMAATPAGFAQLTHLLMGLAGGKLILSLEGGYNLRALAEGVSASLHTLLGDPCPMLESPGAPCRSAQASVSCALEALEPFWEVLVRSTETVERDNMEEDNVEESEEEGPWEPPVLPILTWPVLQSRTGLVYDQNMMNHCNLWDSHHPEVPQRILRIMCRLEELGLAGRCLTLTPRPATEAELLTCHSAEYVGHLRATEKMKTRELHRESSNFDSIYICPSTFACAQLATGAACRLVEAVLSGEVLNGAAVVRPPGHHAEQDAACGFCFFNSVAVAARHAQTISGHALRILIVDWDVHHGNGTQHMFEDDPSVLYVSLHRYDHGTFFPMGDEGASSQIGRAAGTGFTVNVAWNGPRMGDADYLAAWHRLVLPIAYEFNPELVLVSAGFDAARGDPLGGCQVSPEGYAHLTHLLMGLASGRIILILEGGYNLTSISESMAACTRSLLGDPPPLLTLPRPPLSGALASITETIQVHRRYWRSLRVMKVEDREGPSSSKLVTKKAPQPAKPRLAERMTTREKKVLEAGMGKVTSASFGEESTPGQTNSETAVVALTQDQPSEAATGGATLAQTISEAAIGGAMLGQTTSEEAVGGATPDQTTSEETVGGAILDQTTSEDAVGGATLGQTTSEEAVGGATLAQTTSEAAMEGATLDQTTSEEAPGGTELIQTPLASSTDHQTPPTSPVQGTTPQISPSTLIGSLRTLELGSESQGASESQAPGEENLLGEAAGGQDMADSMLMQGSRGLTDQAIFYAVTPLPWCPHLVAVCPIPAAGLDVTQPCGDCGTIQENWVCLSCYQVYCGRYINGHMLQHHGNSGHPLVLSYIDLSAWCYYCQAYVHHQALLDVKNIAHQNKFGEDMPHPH

HDAC1 = target: T3, HDAC1 (Homo sapiens, UniProt Q13547); experiment: HDAC1 in vitro deacetylation assay (ZMAL); details: deacetylation, mean ± SD
T3 construct: purchased BPS Bioscience 50051
T3 sequence (Q13547 whole entry): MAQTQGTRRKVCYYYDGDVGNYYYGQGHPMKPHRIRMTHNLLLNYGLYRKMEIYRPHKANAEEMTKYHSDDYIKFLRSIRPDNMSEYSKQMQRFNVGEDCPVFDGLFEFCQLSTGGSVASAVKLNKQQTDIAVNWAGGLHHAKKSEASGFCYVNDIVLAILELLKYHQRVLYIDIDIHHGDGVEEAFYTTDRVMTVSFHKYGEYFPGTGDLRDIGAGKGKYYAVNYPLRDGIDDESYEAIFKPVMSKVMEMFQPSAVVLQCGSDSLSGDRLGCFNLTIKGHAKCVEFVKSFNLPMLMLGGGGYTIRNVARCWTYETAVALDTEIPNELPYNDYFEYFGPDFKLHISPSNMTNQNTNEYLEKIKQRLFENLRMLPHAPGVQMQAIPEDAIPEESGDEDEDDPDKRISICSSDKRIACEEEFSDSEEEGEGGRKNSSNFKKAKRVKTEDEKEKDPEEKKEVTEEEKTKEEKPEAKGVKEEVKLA

O=C(CCCCCCC(=O)Nc1ccccc1)NO [SAHA, suberoylanilide hydroxamic acid, reference compound]
Sirt2 (demyristoylation) percentual inhibition (Sirt2 (demyristoylation); @ 10 μM): 18% @ 10 μM

Cc1cc(C)nc(SCC(=O)Nc2ncc(Cc3cccc(C(=O)NO)c3)s2)n1 [Compound 21, 3-((2-(2-((4,6-Dimethylpyrimidin-2-yl)thio)acetamido)thiazol-5-yl)methyl)-N-hydroxybenzamide]
inhibition at 20 µM (Sirt2 (demyristoylation)): < 15%

O=C(NO)c1ccc(CNC(=O)c2ccccc2)cc1 [Compound 56, 4-(Benzamidomethyl)-N-hydroxybenzamide]
inhibition at 20 µM (Sirt2 (demyristoylation)): < 15% | IC50 (HDAC6): 18 ± 1 nM | IC50 (HDAC1): 810 ± 50 nM

CC(=O)NCc1ccc(C(=O)NO)cc1 [Compound 55, 4-(Acetamidomethyl)-N-hydroxybenzamide]
inhibition at 20 µM (Sirt2 (demyristoylation)): < 15% | IC50 (HDAC6): 650 ± 40 nM | IC50 (HDAC1): 17000 ± 1000 nM
